The assay addresses cGMP-specific 3',5'-cyclic phosphodiesterase (Homo sapiens) (UniProt O76074). Kind of assay: Percentage inhibition against phosphodiesterase 5 (PDE5) was determined using [3H]cGMP scintillation proximity assay at concentration of 1 uM.
As for `CC(C)Cn1c(=O)n(COc2ccccc2)c(=O)c2[nH]c(Cc3ccc(Br)cc3)nc21`, the inhibition (in general, how much of the control response was suppressed) stood at 33%.

Compound `CC(C)Cn1c(=O)n(C2CCC2)c(=O)c2[nH]c(Cc3ccc(Br)cc3)nc21` displayed an inhibition of 4%.

The compound `CC(C)Cn1c(=O)n(CO)c(=O)c2[nH]c(Cc3ccc(Br)cc3)nc21` registered an inhibition of 88%.

In the case of `CCCn1c(=O)c2[nH]c(Cc3ccc(Br)cc3)nc2n(CC(C)C)c1=O`, the inhibition stood at 57%.

For the compound `CC(C)Cn1c(=O)n(CC(C)(C)C)c(=O)c2[nH]c(Cc3ccc(Br)cc3)nc21`, the inhibition was 35%.

`CC(C)Cn1c(=O)n(CN(C(C)C)C(C)C)c(=O)c2[nH]c(Cc3ccc(Br)cc3)nc21` had an inhibition of 41%.

As for `CC(C)Cn1c(=O)n(-c2ccncc2)c(=O)c2[nH]c(Cc3ccc(Br)cc3)nc21`, the inhibition was found to be 22%.

In turn, `CC(C)Cn1c(=O)n(-c2cncn2C)c(=O)c2[nH]c(Cc3ccc(Br)cc3)nc21` registered an inhibition of 59%.

`CC(C)Cn1c(=O)n(Cc2cccc3c2OCO3)c(=O)c2[nH]c(Cc3ccc(Br)cc3)nc21` had an inhibition of 13%.

For the compound `CC(C)Cn1c(=O)[nH]c(=O)c2[nH]c(Cc3ccc(Br)cc3)nc21`, the inhibition worked out at 42%.

Turning to `CC(C)Cn1c(=O)n(CCC2CCCCC2)c(=O)c2[nH]c(Cc3ccc(Br)cc3)nc21`, the inhibition turned out to be 42%.

In the case of `CC(C)Cn1c(=O)n(C)c(=O)c2[nH]c(Cc3ccc(Br)cc3)nc21`, the inhibition worked out at 93%.

For `CCn1c(=O)c2[nH]c(Cc3ccc(Br)cc3)nc2n(CC(C)C)c1=O`, the inhibition stood at 93%.

`CC(C)Cn1c(=O)n(CSc2ccccc2)c(=O)c2[nH]c(Cc3ccc(Br)cc3)nc21`: the inhibition worked out at 15%.

In the case of `CC(C)Cn1c(=O)n(-c2ccccn2)c(=O)c2[nH]c(Cc3ccc(Br)cc3)nc21`, the inhibition is 20%.

In turn, `CCOc1ccccc1-n1c(=O)c2[nH]c(Cc3ccc(Br)cc3)nc2n(CC(C)C)c1=O` displayed an inhibition of 38%.

In turn, `C#Cn1c(=O)c2[nH]c(Cc3ccc(Br)cc3)nc2n(CC(C)C)c1=O` registered an inhibition of 68%.

As for `CC(C)Cn1c(=O)n(CN)c(=O)c2[nH]c(Cc3ccc(Br)cc3)nc21`, the inhibition was 38%.
